ChEMBL document CHEMBL1201862, “PubChem BioAssay data set” (2004)
Activity calls are given as the source filed them. No stated cut-off is given here; in the data, actives have a measured IC50 and inactives only a lower limit.

Molecular target: Envelope glycoprotein gp160 (Human immunodeficiency virus 1, UniProt Q6QLK5)
Test: inhibitors of HIV fusion peptide binding, primary screen, biochemical, uHTS, fluorescence dequenching (AID 1986)

Sequence of Envelope glycoprotein gp160 (Q6QLK5 whole entry, the tested form may be a part): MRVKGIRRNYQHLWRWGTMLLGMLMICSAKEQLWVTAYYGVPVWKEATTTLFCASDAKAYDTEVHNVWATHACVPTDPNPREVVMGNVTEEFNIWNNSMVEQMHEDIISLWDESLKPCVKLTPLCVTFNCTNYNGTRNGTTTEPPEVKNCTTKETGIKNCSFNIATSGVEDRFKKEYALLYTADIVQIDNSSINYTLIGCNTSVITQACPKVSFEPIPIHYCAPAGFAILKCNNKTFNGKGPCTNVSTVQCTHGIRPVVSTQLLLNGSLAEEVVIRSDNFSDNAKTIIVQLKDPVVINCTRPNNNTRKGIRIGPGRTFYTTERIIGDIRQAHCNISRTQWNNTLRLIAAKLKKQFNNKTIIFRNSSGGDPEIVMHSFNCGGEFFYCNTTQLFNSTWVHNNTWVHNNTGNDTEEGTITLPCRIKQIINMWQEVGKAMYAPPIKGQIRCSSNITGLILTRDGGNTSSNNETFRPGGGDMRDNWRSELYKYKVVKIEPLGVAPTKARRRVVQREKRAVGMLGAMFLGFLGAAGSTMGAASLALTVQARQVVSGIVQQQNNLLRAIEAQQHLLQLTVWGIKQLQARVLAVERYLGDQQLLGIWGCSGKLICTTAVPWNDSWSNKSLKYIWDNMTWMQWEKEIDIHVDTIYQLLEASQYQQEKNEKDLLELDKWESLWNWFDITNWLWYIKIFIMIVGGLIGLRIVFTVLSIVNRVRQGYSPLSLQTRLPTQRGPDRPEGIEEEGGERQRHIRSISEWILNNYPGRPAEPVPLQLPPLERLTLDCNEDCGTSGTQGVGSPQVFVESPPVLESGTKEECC

Question: With CCOc1cc(/C=C2/C(=N)N3C(=NC2=O)SN=C3S(=O)(=O)CC)ccc1OC(=O)c1ccco1 as the compound, how does the IC50 read?
Answer: 19.3 µM (active)
